The supplement of paper PMC10307832

Assays:
Assay in all cases: relative viability (nuclei count vs DMSO), 5 days (fraction); higher = more cells survive
LU99A = system: LU99A
Method in brief: (§1)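 Relative viability equals treated-well nuclei counts divided by vehicle-well nuclei counts. Counts came from 4× images of lung cancer cell lines grown in 1536-well plates for 5 days after pin-tool dosing on the day after seeding. Dosing used one drug alone or a fixed anchor-drug dose plus five library-drug doses (not always all listed) in √10 steps, and values are medians of duplicate plates.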

NCI-H1395 = system: NCI-H1395
Method in brief: as §1

NCI-H1437 = system: NCI-H1437
Method in brief: as §1

NCI-H1666 = system: NCI-H1666
Method in brief: as §1

NCI-H1975 = system: NCI-H1975
Method in brief: as §1

NCI-H2085 = system: NCI-H2085
Method in brief: as §1

NCI-H2087 = system: NCI-H2087
Method in brief: as §1

NCI-H2126 = system: NCI-H2126
Method in brief: as §1

NCI-H358 = system: NCI-H358
Method in brief: as §1

NCI-H647 = system: NCI-H647
Method in brief: as §1

PC-3 [JPC-3] = system: PC-3 [JPC-3]
Method in brief: as §1

SW 1573 = system: SW 1573
Method in brief: as §1

Clc1ccc(Nc2nnc(Cc3ccncc3)c3ccccc23)cc1 [Vatalanib] + C[C@]1(O)C[C@@H](c2nc(-c3ccc4ccc(-c5ccccc5)nc4c3)c3c(N)nccn32)C1 [Linsitinib] (partner 1 µM)
relative viability (LU99A; first compound 1.265 µM): 0.534 | relative viability (LU99A; first compound 4 µM): 0.49 | relative viability (NCI-H1395; first compound 0.04 µM): 1.14 | relative viability (NCI-H1395; first compound 0.1265 µM): 0.99 | relative viability (NCI-H1395; first compound 0.4 µM): 1.63 | relative viability (NCI-H1395; first compound 1.265 µM): 0.998 | relative viability (NCI-H1395; first compound 4 µM): 0.86 | relative viability (NCI-H1437; first compound 0.04 µM): 1.09 | relative viability (NCI-H1437; first compound 0.1265 µM): 1.03 | relative viability (NCI-H1437; first compound 0.4 µM): 1.14 | relative viability (NCI-H1437; first compound 1.265 µM): 0.956 | relative viability (NCI-H1437; first compound 4 µM): 1.08 | relative viability (NCI-H1666; first compound 0.04 µM): 0.805 | relative viability (NCI-H1666; first compound 0.1265 µM): 0.891 | relative viability (NCI-H1666; first compound 0.4 µM): 0.923 | relative viability (NCI-H1666; first compound 1.265 µM): 0.779 | relative viability (NCI-H1666; first compound 4 µM): 0.708 | relative viability (NCI-H1975; first compound 0.04 µM): 0.889 | relative viability (NCI-H1975; first compound 0.1265 µM): 0.92 | relative viability (NCI-H1975; first compound 0.4 µM): 1.1 | relative viability (NCI-H1975; first compound 1.265 µM): 0.834 | relative viability (NCI-H1975; first compound 4 µM): 0.86 | relative viability (NCI-H2085; first compound 0.04 µM): 0.919 | relative viability (NCI-H2085; first compound 0.1265 µM): 0.974 | relative viability (NCI-H2085; first compound 0.4 µM): 1.05 | relative viability (NCI-H2085; first compound 1.265 µM): 0.846 | relative viability (NCI-H2085; first compound 4 µM): 0.886 | relative viability (NCI-H2087; first compound 0.04 µM): 1.2 | relative viability (NCI-H2087; first compound 0.1265 µM): 0.87 | relative viability (NCI-H2087; first compound 0.4 µM): 1.04 | relative viability (NCI-H2087; first compound 1.265 µM): 0.908 | relative viability (NCI-H2087; first compound 4 µM): 1.05 | relative viability (NCI-H2126; first compound 0.04 µM): 0.669 | relative viability (NCI-H2126; first compound 0.1265 µM): 0.72 | relative viability (NCI-H2126; first compound 0.4 µM): 0.669 | relative viability (NCI-H2126; first compound 1.265 µM): 0.729 | relative viability (NCI-H2126; first compound 4 µM): 0.739 | relative viability (NCI-H358; first compound 0.04 µM): 0.898 | relative viability (NCI-H358; first compound 0.1265 µM): 0.718 | relative viability (NCI-H358; first compound 0.4 µM): 0.917 | relative viability (NCI-H358; first compound 1.265 µM): 0.699 | relative viability (NCI-H358; first compound 4 µM): 0.578 | relative viability (NCI-H647; first compound 0.04 µM): 1.02 | relative viability (NCI-H647; first compound 0.1265 µM): 1.14 | relative viability (NCI-H647; first compound 0.4 µM): 1.2 | relative viability (NCI-H647; first compound 1.265 µM): 1.21 | relative viability (NCI-H647; first compound 4 µM): 1.09 | relative viability (PC-3 [JPC-3]; first compound 0.04 µM): 0.986 | relative viability (PC-3 [JPC-3]; first compound 0.1265 µM): 1.01 | relative viability (PC-3 [JPC-3]; first compound 0.4 µM): 0.957 | relative viability (PC-3 [JPC-3]; first compound 1.265 µM): 0.824 | relative viability (PC-3 [JPC-3]; first compound 4 µM): 0.932 | relative viability (SW 1573; first compound 0.04 µM): 1 | relative viability (SW 1573; first compound 0.1265 µM): 0.791 | relative viability (SW 1573; first compound 0.4 µM): 0.781 | relative viability (SW 1573; first compound 1.265 µM): 0.802 | relative viability (SW 1573; first compound 4 µM): 0.723
